Columns and labels:
Type in all cases: cell-based, human
ACHN = experiment: NCI 60 panel five-dose growth inhibition, Renal Cancer
HOP-62 = experiment: NCI 60 panel five-dose growth inhibition, Non-Small Cell Lung Cancer; settings: HOP-62, Non-Small Cell Lung Cancer
A549/ATCC = experiment: as above
RPMI-8226 = experiment: NCI 60 panel five-dose growth inhibition, Leukemia; settings: RPMI-8226, Leukemia
5K-MEL-5 = experiment: NCI 60 panel five-dose growth inhibition, Melanoma; settings: 5K-MEL-5, Melanoma
U0-31 = experiment: NCI 60 panel five-dose growth inhibition, Renal Cancer; settings: U0-31, Renal Cancer
1-ICT-15 = experiment: NCI 60 panel five-dose growth inhibition, Colon Cancer; settings: 1-ICT-15, Colon Cancer
M14 = experiment: NCI 60 panel five-dose growth inhibition, Melanoma
SF-539 = experiment: NCI 60 panel five-dose growth inhibition, CNS Cancer; settings: SF-539, CNS Cancer
MOLT-4 = experiment: NCI 60 panel five-dose growth inhibition, Leukemia; settings: MOLT-4, Leukemia
U251 = experiment: NCI 60 panel five-dose growth inhibition, CNS Cancer
UACC-62 = experiment: NCI 60 panel five-dose growth inhibition, Melanoma
MDA-MB-468 = experiment: NCI 60 panel five-dose growth inhibition, Breast Cancer; settings: MDA-MB-468, Breast Cancer
NCI-H460 = experiment: NCI 60 panel five-dose growth inhibition, Non-Small Cell Lung Cancer
HCT-116 = experiment: NCI 60 panel five-dose growth inhibition, Colon Cancer; settings: HCT-116, Colon Cancer
IGROV1 = experiment: NCI 60 panel five-dose growth inhibition, Ovarian Cancer
K-562 = experiment: NCI 60 panel five-dose growth inhibition, Leukemia; settings: K-562, Leukemia
HL-60(T13) = experiment: NCI 60 panel five-dose growth inhibition, Leukemia; settings: Homo sapiens
HS 5781 = experiment: NCI 60 panel five-dose growth inhibition, Breast Cancer; settings: HS 5781, Breast Cancer
MDA-MB-231/ATCC = experiment: as above
SNB-75 = experiment: NCI 60 panel five-dose growth inhibition, CNS Cancer; settings: Homo sapiens; SNB-75, CNS Cancer
PC-3 = experiment: NCI 60 panel five-dose growth inhibition, Prostate Cancer; settings: PC-3, Prostate Cancer
SK-MEL-28 = experiment: NCI 60 panel five-dose growth inhibition, Melanoma; settings: SK-MEL-28, Melanoma
MCF7 = experiment: NCI 60 panel five-dose growth inhibition, Breast Cancer
SK-MEL-2 = experiment: NCI 60 panel five-dose growth inhibition, Melanoma; settings: SK-MEL-2, Melanoma
SR = experiment: NCI 60 panel five-dose growth inhibition, Leukemia
CAKI-1 = experiment: NCI 60 panel five-dose growth inhibition, Renal Cancer; settings: CAKI-1, Renal Cancer
LOX IMVI = experiment: NCI 60 panel five-dose growth inhibition, Melanoma
KM12 = experiment: NCI 60 panel five-dose growth inhibition, Colon Cancer
SW-620 = experiment: as above; settings: SW-620, Colon Cancer
HCC-2998 = experiment: as above; settings: HCC-2998, Colon Cancer
COLO 205 = experiment: as above; settings: COLO 205, Colon Cancer
DU-145 = experiment: NCI 60 panel five-dose growth inhibition, Prostate Cancer; settings: DU-145, Prostate Cancer
NCI/ADR-RES = experiment: NCI 60 panel five-dose growth inhibition, Ovarian Cancer
SF-268 = experiment: NCI 60 panel five-dose growth inhibition, CNS Cancer; settings: SF-268, CNS Cancer
MDA-MB-435 = experiment: NCI 60 panel five-dose growth inhibition, Melanoma; settings: Homo sapiens; MDA-MB-435, Melanoma
SK-OV-3 = experiment: NCI 60 panel five-dose growth inhibition, Ovarian Cancer; settings: SK-OV-3, Ovarian Cancer

COc1cc(-c2n[nH]nc2-c2ccc3c(c2)OCCO3)cc(OC)c1OC [Example 7, 4-(2,3-dihydrobenzo[b][1,4]dioxin-6-yl)-5-(3,4,5-trimethoxyphenyl)-2H-1,2,3-triazole]
TGI (ACHN): >100 µM | GI50 (ACHN; Homo sapiens): 705 nM | TGI (HOP-62): >100 µM | GI50 (HOP-62; Homo sapiens): 336 nM | TGI (A549/ATCC): 50.9 µM | GI50 (A549/ATCC; Homo sapiens): 289 nM | GI50 (RPMI-8226; Homo sapiens): 326 nM | TGI (RPMI-8226): 22.1 µM | TGI (5K-MEL-5): 11.9 µM | GI50 (5K-MEL-5; Homo sapiens): > 1000 nM | GI50 (U0-31; Homo sapiens): 661 nM | TGI (U0-31): 72.7 µM | TGI (1-ICT-15): >100 µM | GI50 (1-ICT-15; Homo sapiens): 125 nM | TGI (M14): 12.0 µM | GI50 (SF-539; Homo sapiens): 181 nM | TGI (SF-539): 0.54 µM | GI50 (MOLT-4; Homo sapiens): 572 nM | TGI (MOLT-4): 51.8 µM | TGI (U251): 11.2 µM | GI50 (U251; Homo sapiens, U-251): 302 nM | GI50 (UACC-62; Homo sapiens, UACC-62, UACC-62, Melanoma): > 1000 nM | TGI (UACC-62; UACC-62, Melanoma): 30.8 µM | GI50 (MDA-MB-468; Homo sapiens): 226 nM | TGI (MDA-MB-468): 25.8 µM | TGI (NCI-H460): 28.7 µM | GI50 (NCI-H460; Homo sapiens): 335 nM | TGI (HCT-116): 15.6 µM | GI50 (HCT-116; Homo sapiens): 181 nM | TGI (IGROV1): >100 µM | GI50 (IGROV1; Homo sapiens, IGROV-1): > 1000 nM | GI50 (K-562; Homo sapiens, K562): 49.6 nM | TGI (K-562): >100 µM | GI50 (HL-60(T13)): 201 nM | TGI (HS 5781): >100 µM | GI50 (HS 5781; Homo sapiens): 442 nM | TGI (MDA-MB-231/ATCC): 31.5 µM | GI50 (MDA-MB-231/ATCC; Homo sapiens): 529 nM | GI50 (SNB-75): 82.4 nM | GI50 (PC-3; Homo sapiens): 255 nM | TGI (PC-3): 43.7 µM | GI50 (SK-MEL-28; Homo sapiens): 244 nM | TGI (SK-MEL-28): 43.5 µM | TGI (MCF7): >100 µM | GI50 (MCF7; Homo sapiens): 76.8 nM | GI50 (SK-MEL-2; Homo sapiens): 23.6 nM | TGI (SK-MEL-2): 55.7 µM | TGI (SR): 11.6 µM | GI50 (SR; Homo sapiens): 43.6 nM | TGI (CAKI-1): >100 µM | GI50 (CAKI-1; Homo sapiens): 316 nM | TGI (LOX IMVI): 87.1 µM | GI50 (LOX IMVI; Homo sapiens): 545 nM | TGI (KM12): 11.9 µM | GI50 (KM12; Homo sapiens): 70 nM | GI50 (SW-620; Homo sapiens): 105 nM | TGI (SW-620): >100 µM | TGI (HCC-2998): 24.6 µM | GI50 (HCC-2998; Homo sapiens): > 1000 nM | TGI (COLO 205): 1.30 µM | GI50 (COLO 205; Homo sapiens): 311 nM | TGI (DU-145): >100 µM | GI50 (DU-145; Homo sapiens): 346 nM | TGI (NCI/ADR-RES): 24.0 µM | GI50 (NCI/ADR-RES; Homo sapiens): 84.9 nM | GI50 (SF-268; Homo sapiens): > 1000 nM | TGI (SF-268): >100 µM | GI50 (MDA-MB-435): 94.8 nM | GI50 (SK-OV-3; Homo sapiens): 486 nM | TGI (SK-OV-3): 93.2 µM

— patent US10239844B2, “Disubstituted triazole analogs” (BioVentures, LLC, priority 2014, dated 2019)
